Measurements reported in PMC3234165 (Biochemistry, 2011).

How the values were obtained:
MDA-MB-231 = assay: Multiplex cytotoxicity assay; format: cell-based; conditions: Homo sapiens, MDA-MB-231, read-out: IC50 MDA-MB-231
[1] = molecular target: M5 (muscarinic acetylcholine receptor type 5) (Homo sapiens, UniProt P08912); assay: NIMH PDSP secondary binding assay
MCF-7 = assay: Multiplex cytotoxicity assay; format: cell-based; conditions: Homo sapiens, MCF7, read-out: IC50 MCF-7
[2] = molecular target: NET (norepinephrine transporter) (Homo sapiens, UniProt P23975); assay: NIMH PDSP secondary binding assay
Chain of NET (norepinephrine transporter) (P23975 whole entry, species assumed): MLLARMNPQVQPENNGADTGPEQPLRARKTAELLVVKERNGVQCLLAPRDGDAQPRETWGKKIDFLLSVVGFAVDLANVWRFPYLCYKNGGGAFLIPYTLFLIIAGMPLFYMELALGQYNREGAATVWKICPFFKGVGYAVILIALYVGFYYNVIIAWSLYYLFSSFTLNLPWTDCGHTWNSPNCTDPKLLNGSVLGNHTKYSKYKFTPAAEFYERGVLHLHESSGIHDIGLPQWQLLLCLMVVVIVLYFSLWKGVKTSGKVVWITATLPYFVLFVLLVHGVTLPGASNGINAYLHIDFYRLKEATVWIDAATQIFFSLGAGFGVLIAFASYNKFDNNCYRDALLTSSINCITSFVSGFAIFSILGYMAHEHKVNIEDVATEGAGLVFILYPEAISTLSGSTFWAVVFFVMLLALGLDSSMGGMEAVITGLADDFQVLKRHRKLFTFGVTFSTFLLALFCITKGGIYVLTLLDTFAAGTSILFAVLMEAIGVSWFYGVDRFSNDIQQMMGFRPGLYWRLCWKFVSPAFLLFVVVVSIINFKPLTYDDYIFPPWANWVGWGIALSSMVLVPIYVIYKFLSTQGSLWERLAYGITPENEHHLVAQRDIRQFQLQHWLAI

H1299 = assay: Multiplex cytotoxicity assay; format: cell-based; conditions: Homo sapiens, NCI-H1299, read-out: IC50 H1299
[3] = molecular target: T1, α-1D (α-adrenergic receptor subtype 1D) (Homo sapiens, UniProt P25100); assay: NIMH PDSP secondary binding assay
T1 sequence (P25100 1-572): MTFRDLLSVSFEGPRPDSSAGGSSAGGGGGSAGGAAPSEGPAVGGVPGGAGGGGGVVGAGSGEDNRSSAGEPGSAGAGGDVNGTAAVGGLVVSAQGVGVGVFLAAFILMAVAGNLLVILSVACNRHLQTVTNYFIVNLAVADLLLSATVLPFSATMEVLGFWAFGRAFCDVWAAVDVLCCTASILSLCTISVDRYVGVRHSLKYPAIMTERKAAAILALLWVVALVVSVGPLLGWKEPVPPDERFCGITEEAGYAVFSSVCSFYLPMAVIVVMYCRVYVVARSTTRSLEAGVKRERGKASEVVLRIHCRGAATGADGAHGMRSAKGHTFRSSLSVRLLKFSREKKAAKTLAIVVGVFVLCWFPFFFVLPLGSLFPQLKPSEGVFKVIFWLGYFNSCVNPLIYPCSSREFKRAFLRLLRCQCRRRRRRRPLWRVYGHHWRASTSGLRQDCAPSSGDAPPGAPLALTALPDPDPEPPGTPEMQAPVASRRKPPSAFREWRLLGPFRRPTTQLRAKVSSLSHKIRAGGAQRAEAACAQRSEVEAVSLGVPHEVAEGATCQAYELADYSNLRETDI

[4] = molecular target: H3 (histamine receptor type 3) (Homo sapiens, UniProt Q9Y5N1); assay: NIMH PDSP secondary binding assay
Chain of H3 (histamine receptor type 3) (Q9Y5N1 whole entry): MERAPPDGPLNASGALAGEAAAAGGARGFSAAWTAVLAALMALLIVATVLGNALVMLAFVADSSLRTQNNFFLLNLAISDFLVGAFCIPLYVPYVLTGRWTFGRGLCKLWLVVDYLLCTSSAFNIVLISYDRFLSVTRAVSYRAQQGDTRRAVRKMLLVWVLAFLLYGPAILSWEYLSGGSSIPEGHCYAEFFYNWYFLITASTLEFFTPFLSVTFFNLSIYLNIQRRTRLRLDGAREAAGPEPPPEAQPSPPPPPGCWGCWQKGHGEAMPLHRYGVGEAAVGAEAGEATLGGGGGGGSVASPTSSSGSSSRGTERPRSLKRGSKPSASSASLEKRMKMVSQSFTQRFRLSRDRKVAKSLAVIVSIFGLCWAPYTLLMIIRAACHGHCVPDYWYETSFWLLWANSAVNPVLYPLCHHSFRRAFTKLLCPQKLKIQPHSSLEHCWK

[5] = molecular target: D1 (dopamine receptor type 1) (Homo sapiens, UniProt P21728); assay: NIMH PDSP secondary binding assay
[6] = molecular target: 5HT7 (serotonin receptor subtype 7) (Homo sapiens, UniProt P34969); assay: NIMH PDSP secondary binding assay
Chain of 5HT7 (serotonin receptor subtype 7) (P34969 whole entry, species assumed): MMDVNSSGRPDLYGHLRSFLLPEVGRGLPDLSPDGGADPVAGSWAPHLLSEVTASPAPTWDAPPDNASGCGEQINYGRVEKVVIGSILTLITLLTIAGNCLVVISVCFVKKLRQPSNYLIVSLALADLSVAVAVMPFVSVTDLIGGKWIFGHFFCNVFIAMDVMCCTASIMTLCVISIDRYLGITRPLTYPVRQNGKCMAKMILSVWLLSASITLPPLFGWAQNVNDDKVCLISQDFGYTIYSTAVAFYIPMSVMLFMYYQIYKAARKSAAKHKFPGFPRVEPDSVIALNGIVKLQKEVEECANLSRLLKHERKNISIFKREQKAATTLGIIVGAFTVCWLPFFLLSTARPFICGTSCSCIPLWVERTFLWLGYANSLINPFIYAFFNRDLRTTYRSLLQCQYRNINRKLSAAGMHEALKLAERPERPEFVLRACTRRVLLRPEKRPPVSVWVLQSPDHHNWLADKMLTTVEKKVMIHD

A549 = assay: Multiplex cytotoxicity assay; format: cell-based; conditions: Homo sapiens, A549, read-out: IC50 A549
[7] = molecular target: β-3 (β-adrenergic receptor subtype 3) (Homo sapiens, UniProt P13945); assay: NIMH PDSP secondary binding assay
[8] = molecular target: SERT (serotonin transporter) (Homo sapiens, UniProt P31645); assay: NIMH PDSP secondary binding assay
Chain of SERT (serotonin transporter) (P31645 whole entry, species assumed): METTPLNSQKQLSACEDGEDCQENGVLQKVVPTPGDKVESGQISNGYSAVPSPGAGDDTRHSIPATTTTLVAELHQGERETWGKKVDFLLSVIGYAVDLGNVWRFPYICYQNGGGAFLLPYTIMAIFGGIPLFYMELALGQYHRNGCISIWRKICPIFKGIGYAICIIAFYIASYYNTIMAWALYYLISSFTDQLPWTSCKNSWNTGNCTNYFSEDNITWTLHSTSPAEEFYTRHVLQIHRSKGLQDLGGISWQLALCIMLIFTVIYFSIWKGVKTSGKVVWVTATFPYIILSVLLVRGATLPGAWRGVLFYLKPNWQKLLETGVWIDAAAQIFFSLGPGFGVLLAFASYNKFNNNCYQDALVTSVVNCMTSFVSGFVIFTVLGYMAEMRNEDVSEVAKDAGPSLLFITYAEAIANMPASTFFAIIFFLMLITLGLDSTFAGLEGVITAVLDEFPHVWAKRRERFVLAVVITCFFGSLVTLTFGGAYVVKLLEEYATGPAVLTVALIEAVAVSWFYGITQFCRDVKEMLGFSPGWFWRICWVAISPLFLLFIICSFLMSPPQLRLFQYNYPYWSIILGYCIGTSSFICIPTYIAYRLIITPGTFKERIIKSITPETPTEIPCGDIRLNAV

HT-29 = assay: Multiplex cytotoxicity assay; format: cell-based; conditions: Homo sapiens, HT-29, read-out: IC50 HT-29
SF-268 = assay: Multiplex cytotoxicity assay; format: cell-based; conditions: Homo sapiens, SF-268, read-out: IC50 SF-268
[9] = molecular target: 5HT2B (serotonin receptor subtype 2B) (Homo sapiens, UniProt P41595); assay: NIMH PDSP secondary binding assay
Chain of 5HT2B (serotonin receptor subtype 2B) (P41595 whole entry, species assumed): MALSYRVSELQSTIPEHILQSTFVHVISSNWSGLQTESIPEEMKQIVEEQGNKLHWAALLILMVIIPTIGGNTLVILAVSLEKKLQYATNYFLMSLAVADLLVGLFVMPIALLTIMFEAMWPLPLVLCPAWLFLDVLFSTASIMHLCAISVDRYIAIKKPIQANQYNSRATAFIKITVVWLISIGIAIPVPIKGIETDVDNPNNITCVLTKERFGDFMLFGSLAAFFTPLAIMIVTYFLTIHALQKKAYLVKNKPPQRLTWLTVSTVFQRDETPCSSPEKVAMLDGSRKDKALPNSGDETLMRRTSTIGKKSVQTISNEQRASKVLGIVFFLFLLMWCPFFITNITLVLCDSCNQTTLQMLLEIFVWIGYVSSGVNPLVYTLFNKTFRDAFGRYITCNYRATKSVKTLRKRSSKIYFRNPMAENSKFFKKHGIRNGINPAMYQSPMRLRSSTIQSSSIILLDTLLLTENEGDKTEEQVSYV

Du145 = assay: Multiplex cytotoxicity assay; format: cell-based; conditions: Homo sapiens, DU-145, read-out: IC50 Du145
[10] = molecular target: H1 (histamine receptor type 1) (Homo sapiens, UniProt P35367); assay: NIMH PDSP secondary binding assay
Chain of H1 (histamine receptor type 1) (P35367 whole entry): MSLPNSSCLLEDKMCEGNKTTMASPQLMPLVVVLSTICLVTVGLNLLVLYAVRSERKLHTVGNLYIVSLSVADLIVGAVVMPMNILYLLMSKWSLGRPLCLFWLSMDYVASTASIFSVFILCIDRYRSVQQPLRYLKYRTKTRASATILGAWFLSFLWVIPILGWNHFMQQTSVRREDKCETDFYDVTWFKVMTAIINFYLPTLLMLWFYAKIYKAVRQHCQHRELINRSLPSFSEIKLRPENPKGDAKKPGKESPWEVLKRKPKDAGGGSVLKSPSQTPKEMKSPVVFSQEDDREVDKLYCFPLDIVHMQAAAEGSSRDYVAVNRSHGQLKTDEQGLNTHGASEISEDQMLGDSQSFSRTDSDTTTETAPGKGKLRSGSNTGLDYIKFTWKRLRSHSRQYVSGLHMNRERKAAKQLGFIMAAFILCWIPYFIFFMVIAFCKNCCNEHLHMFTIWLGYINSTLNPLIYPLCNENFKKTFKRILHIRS

[11] = molecular target: 5HT1B (serotonin receptor subtype 1B) (Homo sapiens, UniProt P28222); assay: NIMH PDSP secondary binding assay
Chain of 5HT1B (serotonin receptor subtype 1B) (P28222 whole entry, species assumed): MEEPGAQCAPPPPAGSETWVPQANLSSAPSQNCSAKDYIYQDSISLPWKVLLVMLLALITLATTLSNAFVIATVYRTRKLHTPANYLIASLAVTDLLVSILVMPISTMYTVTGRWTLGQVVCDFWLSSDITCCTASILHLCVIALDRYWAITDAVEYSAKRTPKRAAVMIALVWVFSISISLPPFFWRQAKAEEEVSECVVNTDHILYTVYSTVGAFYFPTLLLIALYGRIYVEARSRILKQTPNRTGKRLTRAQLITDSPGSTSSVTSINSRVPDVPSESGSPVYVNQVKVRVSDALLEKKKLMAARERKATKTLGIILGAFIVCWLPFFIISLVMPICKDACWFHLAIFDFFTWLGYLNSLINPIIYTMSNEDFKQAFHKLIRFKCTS

NCI-H460 = assay: Multiplex cytotoxicity assay; format: cell-based; conditions: Homo sapiens, NCI-H460, read-out: IC50 NCI-H460
SK-OV-3 = assay: Multiplex cytotoxicity assay; format: cell-based; conditions: Homo sapiens, SK-OV-3, read-out: IC50 SK-OV-3
Sig-2R, sigma-2 receptor = molecular target: T2, Sig-2R, sigma-2 receptor (Rattus norvegicus, UniProt Q5U3Y7); assay: NIMH PDSP secondary binding assay
T2 sequence (Q5U3Y7 1-176): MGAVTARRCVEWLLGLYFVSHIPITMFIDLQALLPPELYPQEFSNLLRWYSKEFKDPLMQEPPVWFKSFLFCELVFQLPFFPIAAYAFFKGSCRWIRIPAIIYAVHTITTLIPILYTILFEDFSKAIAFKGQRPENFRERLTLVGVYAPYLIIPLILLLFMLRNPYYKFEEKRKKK

[12] = molecular target: M1 (muscarinic acetylcholine receptor type 1) (Homo sapiens, UniProt P11229); assay: NIMH PDSP secondary binding assay
Chain of M1 (muscarinic acetylcholine receptor type 1) (P11229 whole entry): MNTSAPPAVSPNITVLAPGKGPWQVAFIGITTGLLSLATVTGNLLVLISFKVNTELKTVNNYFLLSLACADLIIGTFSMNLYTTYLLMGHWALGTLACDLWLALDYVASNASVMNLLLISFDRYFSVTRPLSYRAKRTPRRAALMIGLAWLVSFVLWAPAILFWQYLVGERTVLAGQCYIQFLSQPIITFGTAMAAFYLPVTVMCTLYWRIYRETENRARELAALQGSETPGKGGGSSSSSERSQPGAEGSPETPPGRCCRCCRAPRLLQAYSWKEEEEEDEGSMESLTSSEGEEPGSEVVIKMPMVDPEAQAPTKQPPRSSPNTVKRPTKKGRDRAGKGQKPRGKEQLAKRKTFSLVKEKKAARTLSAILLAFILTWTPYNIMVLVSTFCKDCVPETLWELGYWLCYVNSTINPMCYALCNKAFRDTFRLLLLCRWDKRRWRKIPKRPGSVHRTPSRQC

Sig-1R, sigma-1 receptor = Sig-1R, sigma-1 receptor (Rattus norvegicus, UniProt Q9R0C9); assay: NIMH PDSP secondary binding assay
Chain of Sig-1R, sigma-1 receptor (Q9R0C9 whole entry): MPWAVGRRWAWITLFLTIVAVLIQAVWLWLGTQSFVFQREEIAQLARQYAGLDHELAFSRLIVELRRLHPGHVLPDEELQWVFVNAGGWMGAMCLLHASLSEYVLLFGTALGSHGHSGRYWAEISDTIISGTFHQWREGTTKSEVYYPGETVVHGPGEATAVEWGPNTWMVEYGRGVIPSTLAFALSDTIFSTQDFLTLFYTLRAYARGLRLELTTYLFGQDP

[13] = molecular target: T3, 5HT1A (serotonin receptor subtype 1A) (Homo sapiens, UniProt P08908); assay: NIMH PDSP secondary binding assay; conditions: KI 5HT1A, NIMH PDSP; [3H]8-OH-DPAT/0.5 nM
T3 sequence (P08908 1-422): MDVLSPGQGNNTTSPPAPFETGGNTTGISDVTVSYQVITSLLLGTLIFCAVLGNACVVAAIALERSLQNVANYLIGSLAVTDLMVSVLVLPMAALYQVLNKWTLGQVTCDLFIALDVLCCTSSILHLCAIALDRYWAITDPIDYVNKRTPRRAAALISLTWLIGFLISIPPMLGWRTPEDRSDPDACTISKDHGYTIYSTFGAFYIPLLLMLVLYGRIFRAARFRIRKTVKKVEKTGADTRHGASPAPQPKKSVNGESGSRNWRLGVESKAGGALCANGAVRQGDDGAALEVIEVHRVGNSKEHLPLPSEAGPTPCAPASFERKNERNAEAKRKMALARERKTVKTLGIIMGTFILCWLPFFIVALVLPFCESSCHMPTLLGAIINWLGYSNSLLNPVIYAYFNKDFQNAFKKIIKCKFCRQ

[14] = molecular target: T4, sigma-2 receptor (sigma-2 sites) (Rattus norvegicus, UniProt Q5U3Y7); assay: Competitive displacement of [3H]-DTG binding, rat liver membranes; conditions: for KI sigma-2 sites: rat liver membranes in the presence of 100 nM (+)-pentazocine, [3H]-DTG; for sigma-2/sigma-1: ratio from the KI value of sigma-1 and sigma-2 sites (membranes)
T4 sequence (Q5U3Y7 1-176): T2 sequence (Q5U3Y7 1-176)

Chain of M5 (muscarinic acetylcholine receptor type 5) (P08912 whole entry): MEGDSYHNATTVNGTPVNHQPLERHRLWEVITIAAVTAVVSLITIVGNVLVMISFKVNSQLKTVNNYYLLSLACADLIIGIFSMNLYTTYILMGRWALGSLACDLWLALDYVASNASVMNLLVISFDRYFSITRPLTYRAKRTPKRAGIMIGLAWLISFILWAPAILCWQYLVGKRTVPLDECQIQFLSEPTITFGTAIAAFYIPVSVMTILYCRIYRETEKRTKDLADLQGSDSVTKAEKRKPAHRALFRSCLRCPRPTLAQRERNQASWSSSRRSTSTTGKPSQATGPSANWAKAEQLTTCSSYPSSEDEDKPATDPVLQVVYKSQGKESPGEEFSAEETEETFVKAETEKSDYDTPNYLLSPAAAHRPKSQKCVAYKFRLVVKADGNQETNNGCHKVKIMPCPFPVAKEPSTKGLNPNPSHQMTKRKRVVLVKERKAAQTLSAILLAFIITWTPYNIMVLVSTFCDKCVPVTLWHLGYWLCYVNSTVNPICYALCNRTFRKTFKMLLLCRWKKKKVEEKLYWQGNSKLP

In the case of `CCCCCCCNCCCc1ccccc1` [2a, N-(3-Phenylpropyl)heptan-1-amine], the IC50 (MDA-MB-231) is reported as 33 ± 2 µM, the Ki [1] is reported as greater than 10 µM and the IC50 (MCF-7) is reported as 20 ± 1 µM. It also gave a Ki [2] greater than 10 µM, an IC50 (H1299) of 39 ± 6 µM and a Ki [3] greater than 10 µM. It also gave a Ki [4] greater than 10 µM, a Ki [5] greater than 10 µM and a Ki [6] greater than 10 µM. For the same compound, the IC50 (A549) was 83 ± 11 µM, the Ki [7] was greater than 10 µM and the Ki [8] was greater than 10 µM. The IC50 (HT-29) was 40 ± 1 µM, the IC50 (SF-268) was 63 ± 2 µM and the Ki [9] was greater than 10 µM. The IC50 (Du145) was 25 ± 1 µM, the Ki [10] was greater than 10 µM and the Ki [11] was greater than 10 µM. For the same compound, the IC50 (NCI-H460) was 45 ± 5 µM, the IC50 (SK-OV-3) was greater than 100 µM and the Ki (Sig-2R, sigma-2 receptor) was 0.25 µM. It also gave a Ki [12] greater than 10 µM, a Ki (Sig-1R, sigma-1 receptor) of 0.09 µM and a Ki [13] of 0.13 µM. For the same compound, the “KI sigma-2 sites” value [14] was “nanomolar affinities” and the sigma-2/sigma-1 [14] was 2.

`CCCCCCCCCCCCNCCCc1ccccc1` [3a, N-(3-Phenylpropyl)dodecan-1-amine] gave an IC50 (MDA-MB-231) of 54 ± 3 µM, a Ki [1] greater than 10 µM and an IC50 (MCF-7) of 50 ± 18 µM. It also gave a Ki [2] greater than 10 µM, an IC50 (H1299) of 39 ± 0.1 µM and a Ki [3] greater than 10 µM. For the same compound, the Ki [4] was greater than 10 µM, the Ki [5] was greater than 10 µM and the Ki [6] was greater than 10 µM. For the same compound, the IC50 (A549) was 87 ± 70 µM, the Ki [7] was greater than 10 µM and the Ki [8] was greater than 10 µM. The IC50 (HT-29) was 42 ± 21 µM, the IC50 (SF-268) was 60 ± 14 µM and the Ki [9] was greater than 10 µM. The IC50 (Du145) was 51 ± 4 µM, the Ki [10] was greater than 10 µM and the Ki [11] was greater than 10 µM. For the same compound, the IC50 (NCI-H460) was 55 ± 3 µM, the IC50 (SK-OV-3) was 60 ± 7 µM and the Ki (Sig-2R, sigma-2 receptor) was 3.6 µM. The Ki [12] was greater than 10 µM, the Ki (Sig-1R, sigma-1 receptor) was 1.5 µM and the Ki [13] was greater than 10 µM. The “KI sigma-2 sites” value [14] was “micromolar affinities” and the sigma-2/sigma-1 [14] was 0.4.

For `CCCCCCCCCCCCNCCCc1ccc([N+](=O)[O-])cc1` [3b, N-(3-(4-Nitrophenyl)propyl)dodecan-1-amine], the IC50 (MDA-MB-231) was 15 ± 1 µM, the Ki [1] was 3.6 µM and the IC50 (MCF-7) was 12 ± 1 µM. The Ki [2] was greater than 10 µM, the IC50 (H1299) was 13 ± 1 µM and the Ki [3] was 9 µM. It also gave a Ki [4] greater than 10 µM, a Ki [5] greater than 10 µM and a Ki [6] greater than 10 µM. The IC50 (A549) was 29 ± 1 µM, the Ki [7] was greater than 10 µM and the Ki [8] was 0.7 µM. The IC50 (HT-29) was 14 ± 0.2 µM, the IC50 (SF-268) was 16 ± 1 µM and the Ki [9] was 7.9 µM. For the same compound, the IC50 (Du145) was 17 ± 0.4 µM, the Ki [10] was greater than 10 µM and the Ki [11] was greater than 10 µM. The IC50 (NCI-H460) was 18 ± 2 µM, the IC50 (SK-OV-3) was 16 ± 1 µM and the Ki (Sig-2R, sigma-2 receptor) was 0.27 µM. For the same compound, the Ki [12] was greater than 10 µM, the Ki (Sig-1R, sigma-1 receptor) was 0.2 µM and the Ki [13] was 0.04 µM. For the same compound, the “KI sigma-2 sites” value [14] was “micromolar affinities” and the sigma-2/sigma-1 [14] was 0.5.
